The record followed here is ChEMBL document CHEMBL4689842, “EUbOPEN Chemogenomics Library wave 1” (2021).

This data set deals with Fibroblast. Nature of the data set: Incucyte cell viability with human fibroblast. Further: filed as whole numbers so only -1 and 0 and 1 occur. Format: toxicity, cell-based. To be noted: 10 µM, compound concentration 10 uM.
Setting [1] is: 0 h, replicate number 1, timepoint 0 hours.
The mark [2] stands for this setting: 6 h, replicate number 1, timepoint 6 hours.
Where [3] appears, read: 12 h, replicate number 1, timepoint 12 hours.
Setting [4] is: 18 h, replicate number 1, timepoint 18 hours.
The mark [5] stands for this setting: 24 h, replicate number 1, timepoint 24 hours.
Where [6] appears, read: 24 h, replicate number 2, timepoint 24 hours.
Where [7] appears, read: 6 h, replicate number 2, timepoint 6 hours.
The mark [8] stands for this setting: 0 h, replicate number 2, timepoint 0 hours.
[9] abbreviates: 12 h, replicate number 2, timepoint 12 hours.
Where [10] appears, read: 18 h, replicate number 2, timepoint 18 hours.

As for `Cl.O=c1c2cccn2c2ccccc2n1CCCN1CCC(c2ccc(Cl)cc2)CC1`, the “Growth Rate” value by setting is: under setting [1], 1; under setting [2], 0; under setting [3], 0; under setting [4], 0; under setting [5], 0.
With `CCN1CCN(Cc2ccc(Nc3ncc(F)c(-c4cc(F)c5nc(C)n(C(C)C)c5c4)n3)nc2)CC1.CS(=O)(=O)O`, the “Growth Rate” value under setting [1] came to 0, the “Growth Rate” value under setting [4] came to 1, the “Growth Rate” value under setting [5] is recorded as 0 and the “Growth Rate” value under setting [6] is reported as 1.
In the case of `O=C(Cc1ccc(-c2ccc(OCCN3CCOCC3)cc2)cn1)NCc1ccccc1` [TIRBANIBULIN], the “Growth Rate” value stood at 0 under setting [2], 0 under setting [3], 0 under setting [4] and 0 under setting [5].
As for `Cn1nc(C(=O)NCc2ccc(C(=O)O)cc2)cc1-c1ccc2[nH]ccc2c1` [BI 4395], the “Growth Rate” value under setting [1] was 0; the “Growth Rate” value under setting [7] came out at 0; the “Growth Rate” value under setting [3] was 1; the “Growth Rate” value under setting [4] amounted to 1; the “Growth Rate” value under setting [5] is reported as 1.
As to `O=C(Nc1ccc(-c2ccnc(Nc3ccc(N4CCOCC4)cc3)n2)cc1)[C@@H]1CCCN1`, the “Growth Rate” value by setting is: under setting [1], 0; under setting [4], 1; under setting [5], 0.
For the molecule `CCOC(=O)c1c(C)[nH]c2ccc3c(c12)CN1CCc2cc(OC)ccc2C1O3` (stereo not given), the “Growth Rate” value reads like this: under setting [2], 0; under setting [3], 0; under setting [4], 0; under setting [5], 0.
As to `C=CCn1c(=O)c2cnc(Nc3ccc(N4CCN(C)CC4)cc3)nc2n1-c1cccc(C(C)(C)O)n1` [ADAVOSERTIB], the “Growth Rate” value under setting [1] was determined as 0; the “Growth Rate” value under setting [2] was 0; the “Growth Rate” value under setting [3] is given as 0; the “Growth Rate” value under setting [4] is reported as 0; the “Growth Rate” value under setting [5] worked out at 0.
As to `CCCS(=O)(=O)Nc1ccc(F)c(C(=O)c2c[nH]c3ncc(Cl)cc23)c1F` [PLX-4720], the “Growth Rate” value came to 1 under setting [1]; 0 under setting [8]; 0 under setting [2]; 0 under setting [3]; 0 under setting [4]; 0 under setting [5].
Regarding `CCc1cccc(CC)c1NC(=O)c1nn(C)c2c1CCc1cnc(Nc3ccc(N4CCN(C)CC4)cc3OC)nc1-2`, the “Growth Rate” value is recorded as 1 under setting [8]; 0 under setting [2]; 0 under setting [3]; 0 under setting [4]; 0 under setting [5].
With `COc1ccc(-c2ccc3c(N4CCOCC4)nc(N4C[C@@H](C)O[C@@H](C)C4)nc3n2)cc1CO` [Ku-0063794], the “Growth Rate” value turned out to be 1 under setting [1]; 1 under setting [7]; 1 under setting [3]; 0 under setting [9]; 1 under setting [4]; 0 under setting [10]. Moreover, the “Growth Rate” value under setting [5] is reported as 0.
Regarding `CN1CCC(=C2c3ccccc3CC(=O)c3sccc32)CC1.O=C(O)/C=C/C(=O)O` [KETOTIFEN FUMARATE], the “Growth Rate” value reads like this: under setting [1], 0; under setting [2], 0; under setting [3], 0; under setting [4], 0; under setting [5], 0.
Take `COc1cccc2cc(-c3nc([C@H]4CC[C@H](C(=O)O)CC4)n4ncnc(N)c34)[nH]c12` [OSI-027]: the “Growth Rate” value is, setting by setting: under setting [1], 0; under setting [3], 0; under setting [9], 1; under setting [4], 0; under setting [5], 0.
As for `CCCS(=O)(=O)c1nc(NC2CC2)cc(-c2ccc3c(ccn3C3CC(C)(C)NC(C)(C)C3)c2)n1`, the “Growth Rate” value by setting is: under setting [1], 0; under setting [2], 0; under setting [3], 0; under setting [4], 0; under setting [10], 1; under setting [5], 0.
In the case of `COc1ccc(S(=O)(=O)N(CCO)c2ccccc2CN(C)C/C=C/c2ccc(Cl)cc2)cc1.O=P(O)(O)O`, the “Growth Rate” value is, setting by setting: under setting [8], 1; under setting [2], 0; under setting [7], 1; under setting [3], 0; under setting [4], 0; under setting [5], 0.
For the molecule `CN1C2CCC1CC(OC(c1ccc(F)cc1)c1ccc(F)cc1)C2.Cl` (stereo not given), the “Growth Rate” value reads like this: under setting [2], 1; under setting [7], 0; under setting [3], 1; under setting [9], 0; under setting [4], 1; under setting [10], 0. In addition, under setting [5], the “Growth Rate” value is 0.
With `Cc1cc(C)c(S(=O)(=O)N(Cc2ccc(-c3cccc(S(C)(=O)=O)c3)cc2)Cc2ccc(C(F)(F)F)o2)c(C)c1`, the “Growth Rate” value reads like this: under setting [1], 1; under setting [8], 0; under setting [2], 1; under setting [3], 0; under setting [4], 0; under setting [5], 0.
For the molecule `CCn1c(=O)c(-c2ccc(-c3cncs3)cc2Cl)cc2cnc(Nc3ccc(N4CCN(C)CC4)cc3)nc21`, the “Growth Rate” value under setting [1] was 0, the “Growth Rate” value under setting [4] is listed as 1 and the “Growth Rate” value under setting [5] was 0.
Take `COCC(=O)NC/C=C/c1ccc2ncnc(Nc3ccc(Oc4ccc(C)nc4)c(C)c3)c2c1` [CP-724714]: the “Growth Rate” value amounted to 0 under setting [1]; 1 under setting [7]; 1 under setting [3]; 0 under setting [9]; 1 under setting [4]; 0 under setting [10]. In addition, the “Growth Rate” value is listed as 1 under setting [5] and 0 under setting [6].
Turning to `Cn1nc(C(F)(F)F)cc1-c1cnc(N2CCc3cc(S(=O)(=O)Nc4c(F)cc(Cl)cc4F)cc(N4CCCC4=O)c32)nc1` [TP-020], the “Growth Rate” value runs as follows: under setting [1], 0; under setting [2], 1; under setting [3], 0; under setting [9], 1; under setting [4], 1; under setting [10], 0. Moreover, under setting [5], the “Growth Rate” value was 0.
`CN1CCN(C(=O)C(C)(C)c2ccc(C(=O)Nc3cn4cc(-c5cc(C(C)(C)C)cc(C(C)(C)C)c5)ccc4n3)cc2)CC1` [T3-CLK-N]: the “Growth Rate” value amounted to 0 under setting [8], 1 under setting [4] and 1 under setting [5].
Turning to `Cc1ccc2nc(NCCN)c3ncc(C)n3c2c1.O=C(O)C(F)(F)F.O=C(O)C(F)(F)F`, the “Growth Rate” value runs as follows: under setting [8], 0; under setting [2], 0; under setting [3], 0; under setting [4], 0; under setting [5], 0.
For `CCN(CC)S(=O)(=O)Nc1cccc(-c2ccc3c(NC(=O)C4CC4)n[nH]c3c2)c1`, the “Growth Rate” value runs as follows: under setting [2], 0; under setting [3], 0; under setting [4], 0; under setting [5], 0.
For `CNc1cc(Oc2cc(C(=O)Nc3cc(N4CCN(C)CC4)cc(C(F)(F)F)c3)ccc2C)ncn1`, the “Growth Rate” value reads like this: under setting [1], 0; under setting [2], 0; under setting [3], 0; under setting [4], 0; under setting [5], 0.
For `CCOc1cc(C(=O)N2CCC(N3CCN(C)CC3)CC2)ccc1Nc1ncc2c(n1)N(C1CCCC1)c1ccccc1C(=O)N2C`, the “Growth Rate” value runs as follows: under setting [8], 0; under setting [2], 1; under setting [3], 0; under setting [4], 0; under setting [10], 1; under setting [5], 0. Also, the “Growth Rate” value under setting [6] is recorded as 1.
On to `CCc1cccc(CC)c1NC(=O)c1nn(C)c2c1CCc1cnc(Nc3ccc(C(=O)NC4CCN(C)CC4)cc3OC(F)(F)F)nc1-2`, for which the “Growth Rate” value reads like this: under setting [1], 0; under setting [2], 1; under setting [3], 0; under setting [4], 0; under setting [5], 0; under setting [6], 1.
As to `Cc1ccc(C(=O)Nc2cccc(C(F)(F)F)c2)cc1Nc1nc(-c2cccnc2)nc2c1cnn2C`, the “Growth Rate” value is on record as 0 under setting [2], 0 under setting [3], 0 under setting [4] and 0 under setting [5].
